Measured values from patent EP2608671B1, “COMPOUNDS FOR TREATMENT OF CANCER” (Gtx, Inc., priority 2010, dated 2012).
Where two headings read alike, the source gives them in different places.

Assays:
B16-F1 = assay: SRB cell growth inhibition (cytotoxicity) assay; assay type: cell-based, mouse
Text: (§1) The only compounds which belong to the invention are the ones falling under the scope of formula (XI).

A375 = assay: SRB cell growth inhibition (cytotoxicity) assay; assay type: cell-based, human
WM-164 = assay: SRB cell growth inhibition (cytotoxicity) assay; assay type: cell-based, human; settings: Homo sapiens
PC-3 = assay: cells; settings: Homo sapiens
Text: as §1
Cells were stained with SRB solution.
Cells. […] Cells between the third and fifth passages were used for experiments.
Cell growth inhibition studies. […] Cells were stained with sulphorhodamine B (SRB) solution.

DU 145 = assay: cells; settings: Homo sapiens
LNCaP = assay: cells; settings: Homo sapiens
PPC-1 = assay: cells; settings: Homo sapiens
[1] = Mus musculus, B16-F1; Table 6; read-out: IC50 ±SEM (nM), B16-F1
[2] = Homo sapiens, A-375; Table 6; read-out: IC50 ±SEM (nM), A375
[3] = PC-3, read-out: IC50 ±SEM (nM), PC-3
[4] = DU-145, read-out: IC50 ±SEM (nM), DU 145
[5] = read-out: IC50 ±SEM (nM), LNCaP
[6] = PPC-1, read-out: IC50 ±SEM (nM), PPC-1
[7] = Mus musculus, B16-F1; read-out: IC50 ± SEM (nM), B16-F1
[8] = Homo sapiens, A-375, 96 h; read-out: IC50 ± SEM (nM), A375
[9] = WM164, SRB assay, 96 h, Table 2, read-out: IC50 ± SEM (nM), WM-164
[10] = PC-3, 96 h, read-out: IC50 ± SEM (nM), PC-3
[11] = DU-145, 96 h, read-out: IC50 ± SEM (nM), DU 145
[12] = 96 h, read-out: IC50 ± SEM (nM), LNCaP
[13] = PPC-1, 96 h, read-out: IC50 ± SEM (nM), PPC-1
[14] = Mus musculus, B16-F1, read-out: IC50 ± SEM (nM), B16-F1
[15] = Homo sapiens, A-375, 96 h, read-out: IC50 ± SEM (nM), A375
[16] = WM164, 96 h, read-out: IC50 ± SEM (nM), WM-164

| Structure (SMILES) | IC50 (B16-F1; [7]) [nM] | IC50 (A375; [8]) [nM] | IC50 (PC-3; [10]) [nM] | IC50 (DU 145; [11]) [nM] | IC50 (LNCaP; [12]) [nM] | IC50 (PPC-1; [13]) [nM] | IC50 (B16-F1; [14]) [nM] | IC50 (A375; [15]) [nM] | other results |
| --- | --- | --- | --- | --- | --- | --- | --- | --- | --- |
| COc1cc(C(=O)c2cc(-c3ccccc3)n[nH]2)cc(OC)c1OC [1k, (3-Phenyl-1H-pyrazol-5-yl)(3,4,5-trimethoxyphenyl)methanone] | – | – | – | – | – | – | – | – | IC50 (B16-F1; [1]): 245 nM; IC50 (A375; [2]): 100 nM; IC50 (WM-164; WM164, Table 6, read-out: IC50 ±SEM (nM), WM164): 220 nM; IC50 (PC-3; [3]): 101 nM; IC50 (DU 145; [4]): 140 nM; IC50 (LNCaP; [5]): 101 nM; IC50 (PPC-1; [6]): 84 nM |
| COc1cc(C(=C(C)C)c2csc(-c3ccccc3)n2)cc(OC)c1OC [2a, 4-(2-Methyl-1-(3,4,5-trimethoxyphenyl)prop-1-enyl)-2-phenylthiazole] | 3800 ± 1300 | 1900 ± 800 | 2470 | 2650 | 1390 | 2040 | – | – | IC50 (WM-164; [9]): 3700 ± 1200 nM |
| COc1cc(C(O)c2csc(-c3ccccc3)n2)cc(OC)c1OC (centres unmarked) [2b, (2-Phenylthiazol-4-yl)(3,4,5-trimethoxyphenyl)methanol] | > 30000 | > 30000 | > 10000 | > 10000 | > 10000 | > 10000 | – | – | – |
| COc1cc(/C(=C\C#N)c2csc(-c3ccccc3)n2)cc(OC)c1OC [2c-cis, (E)-3-(2-phenylthiazol-4-yl)-3-(3,4,5-trimethoxyphenyl)acrylonitrile] | – | – | ~10000 | ~10000 | 1990 | ~10000 | 1200 ± 300 | 1200 ± 400 | IC50 (WM-164; [16]): 1000 ± 200 nM |
| COc1cc(/C(=C/C#N)c2csc(-c3ccccc3)n2)cc(OC)c1OC [2c-trans, (Z)-3-(2-phenylthiazol-4-yl)-3-(3,4,5-trimethoxyphenyl)acrylonitrile] | – | – | 890 | 2280 | 580 | 900 | 5400 ± 2100 | 4600 ± 1500 | IC50 (WM-164; [16]): 4900 ± 1300 nM |
| COc1cc(/C(=N/N)c2csc(-c3ccccc3)n2)cc(OC)c1OC [2d-cis, (Z)-4-(hydrazono(3,4,5-trimethoxyphenyl)methyl)-2-phenylthiazole] | 2000 ± 800 | 900 ± 300 | 1120 | 1210 | 1800 | 872 | – | – | – |
| COc1cc(/C(=N\N)c2csc(-c3ccccc3)n2)cc(OC)c1OC [2d-trans, (E)-4-(hydrazono(3,4,5-trimethoxyphenyl)methyl)-2-phenylthiazole] | 1800 ± 700 | 600 ± 200 | 1040 | 1210 | 1300 | 966 | – | – | – |
| CO/N=C(/c1cc(OC)c(OC)c(OC)c1)c1csc(-c2ccccc2)n1 [2f-cis, (Z)-(2-Phenylthiazol-4-yl)(3,4,5-trimethoxyphenyl)methanone O-methyl oxime] | 3800 ± 1600 | 2900 ± 1200 | > 10000 | > 10000 | > 10000 | > 10000 | – | – | IC50 (WM-164; [9]): 3400 ± 1800 nM |
| CO/N=C(\c1cc(OC)c(OC)c(OC)c1)c1csc(-c2ccccc2)n1 [2f-trans, (E)-(2-Phenylthiazol-4-yl)(3,4,5-trimethoxyphenyl)methanone O-methyl oxime] | > 10000 | > 10000 | > 10000 | > 10000 | > 10000 | > 10000 | – | – | IC50 (WM-164; [9]): > 10000 nM |
| COc1cc(C(=O)Nc2csc(-c3ccccc3)n2)cc(OC)c1OC [2h, 3,4,5-Trimethoxy-N-(2-phenylthiazol-4-yl)benzamide] | > 30000 | > 30000 | > 10000 | > 10000 | > 10000 | > 10000 | – | – | – |
| COc1cc(-c2csc(-c3ccccc3)n2)cc(OC)c1OC [2i, 2-Phenyl-4-(3,4,5-trimethoxyphenyl)thiazole] | > 10000 | > 10000 | > 10000 | > 10000 | > 10000 | > 10000 | – | – | IC50 (WM-164; [9]): > 10000 nM |
| COc1cc(C(=O)c2csc(-c3ccc(CC#N)cc3)n2)cc(OC)c1OC [2n, 2-(4-(4-(3,4,5-Trimethoxybenzoyl)thiazol-2-yl)phenyl)acetonitrile] | – | – | – | – | – | – | – | – | IC50 (B16-F1; [1]): 290 nM; IC50 (A375; [2]): 210 nM; IC50 (PC-3; [3]): 131 nM; IC50 (DU 145; [4]): 143 nM; IC50 (LNCaP; [5]): 101 nM; IC50 (PPC-1; [6]): 99 nM |
| COc1cc(/C=C\c2csc(-c3ccccc3)n2)cc(OC)c1OC [3a, (Z)-2-Phenyl-4-(3,4,5-trimethoxystyryl)thiazole] | – | – | > 10000 | > 10000 | > 10000 | > 10000 | 11000 ± 2800 | 46500 ± 23300 | – |
| COc1cc(/C=C/c2csc(-c3ccccc3)n2)cc(OC)c1OC [3b, (E)-2-Phenyl-4-(3,4,5-trimethoxystyryl)thiazole] | – | – | > 10000 | > 10000 | > 10000 | > 10000 | 32800 ± 13000 | > 10000 | IC50 (WM-164; [16]): 30800 ± 12000 nM |
| O=C(c1cc(O)c(O)c(O)c1)c1c[nH]c(-c2ccc(O)c(O)c2)n1 [13ha, (2-(3,4-dihydroxyphenyl)-1H-imidazol-4-yl)(3,4,5-trihydroxyphenyl)methanone] | – | – | – | – | – | – | – | – | IC50 (B16-F1; Mus musculus; B16-F1 melanoma cells, 48 h, SRB; read-out: IC50 ± SEM (nM) B16-F1): > 10000 nM; IC50 (A375; Homo sapiens, A-375; A375 melanoma cells, 48 h, SRB; read-out: IC50 ± SEM (nM) A375): > 10000 nM; IC50 (WM-164; WM164 melanoma cells, 48 h, SRB, read-out: IC50 ± SEM (nM) WM164): > 10000 nM |
| COc1cc(C(=O)c2coc(-c3ccccc3)n2)cc(OC)c1OC [36a, (2-Phenyl-oxazol-4-yl)-(3,4,5-trimethoxy-phenyl)-methanone] | 600 ± 200 | 300 ± 100 | 294 | 292 | 310 | 324 | – | – | – |
| COc1cc(C(=O)[C@@H]2CSC(c3ccc(O[Si](C)(C)C(C)(C)C)cc3)=N2)cc(OC)c1OC [58a, (R)-(2-(4-(tert-Butyldimethylsilyloxy)phenyl)-4,5-dihydrothiazol-4-yl)(3,4,5-trimethoxyphenyl)methanone] | – | – | 183 ± 24 | 434 ± 30 | 549 | 246 ± 8 | 500 ± 200 | 700 ± 300 | – |
| COc1cc(C(=O)c2csc(-c3cc4ccccc4[nH]3)n2)cc(OC)c1OC [62a, (2-(1H-indol-2-yl)thiazol-4-yl)(3,4,5-trimethoxyphenyl)methanone] | – | – | 24 | 32 | 28 | 28 | 43 ± 21 | 19 ± 9 | – |
| COc1cc(C(=O)c2csc(-c3ccc(CNC(=O)OC(C)(C)C)cc3)n2)cc(OC)c1OC [68a, tert-Butyl 4-(4-(3,4,5-trimethoxybenzoyl)thiazol-2-yl)benzylcarbamate] | 2900 ± 400 | 7900 ± 500 | 3100 | 4400 | 2600 | 2700 | – | – | – |
| CC(C)C[C@H](NC(=O)[C@H](Cc1ccccc1)NC(=O)c1cnccn1)B(O)O [Bortezomib, reference compound] | – | – | – | – | – | – | – | – | IC50 (B16-F1; Mus musculus, B16-F1, read-out: IC50 ± SEM (nM) (n=3), B16-F1; Table 14A): 24 ± 2 nM; IC50 (A375; Homo sapiens, A-375, read-out: IC50 ± SEM (nM) (n=3), A375; Table 14A): 8 ± 1 nM; IC50 (WM-164; WM164, read-out: IC50 ± SEM (nM) (n=3), WM-164, Table 14A): 8 ± 1 nM |
